Each structure is given as a SMILES string.

Turning to `CCn1cnc2c(Nc3cccc(NC(=O)OCC(C)C)c3)nc(N[C@H]3CC[C@H](O)CC3)nc21` [Example 87, {3-[9-Ethyl-2-(trans-4-hydroxy-cyclo-hexylamino)-9H-purin-6-yl-amino]-phenyl}-carbamic acid isobutyl ester], the melting point fell in the range of 122 to 125 °C.
Consider `CCn1cnc2c(Nc3cccc(NC(=O)C#Cc4ccc(Cl)cc4)c3)nc(N[C@H]3CC[C@H](O)CC3)nc21` [Example 92, N-{3-[9-Ethyl-2-(trans-4-hydroxy-cyclo-hexylamino)-9H-purin-6-yl-amino]-phenyl}-3-(4-chlorophenyl)-propargylic acid amide], for which the melting point lay in the range of 148 to 150 °C.
As for `CCn1cnc2c(Nc3cccc(NC(=O)C#Cc4ccc(F)cc4)c3)nc(N[C@H]3CC[C@H](O)CC3)nc21` [Example 93, N-{3-[9-Ethyl-2-(trans-4-hydroxy-cyclo-hexylamino)-9H-purin-6-yl-amino]-phenyl}-3-(4-fluorophenyl)-propargylic acid amide], the melting point was in the range of 144 to 146 °C.
`CCn1cnc2c(Nc3cccc(NC(=O)C#Cc4ccc(OC)cc4)c3)nc(N[C@H]3CC[C@H](O)CC3)nc21` [Example 95, N-{3-[9-Ethyl-2-(trans-4-hydroxy-cyclo-hexylamino)-9H-purin-6-yl-amino]-phenyl}-3-(4-methoxyphenyl)-propargylic acid amide]: the melting point was in the range of 142 to 144 °C.
On to `CC(C)n1cnc2c(Nc3cccc(NC(=O)C#Cc4ccc(Cl)cc4)c3)nc(NC3CCC(O)CC3)nc21` (centres unmarked) [Example 96, 3-(4-Chloro-phenyl)-propynoic acid {3-[2-(4-hydroxy-cyclohexylamino)-9-isopropyl-9H-purin-6-ylamino]-phenyl}-amide], for which the melting point is 156 to 158 °C.
The result for `Cc1ccc(C#CC(=O)Nc2cccc(Nc3nc(NC4CCC(O)CC4)nc4c3ncn4C(C)C)c2)cc1` (centres unmarked) [Example 97, 3-p-Tolyl-propynoic acid {3-[2-(4-hydroxy-cyclohexylamino)-9-isopropyl-9H-purin-6-ylamino]-phenyl}-amide] reads 152 to 154 °C; that for `COc1ccc(C#CC(=O)Nc2cccc(Nc3nc(NC4CCC(O)CC4)nc4c3ncn4C(C)C)c2)cc1` (centres unmarked) [Example 98, 3-(4-Methoxy-phenyl)-propynoic acid {3-[2-(4-hydroxy-cyclohexyl-amino)-9-isopropyl-9H-purin-6-ylamino]-phenyl)-amide], 246 to 248 °C.
With `CC(C)n1cnc2c(Nc3cccc(NC(=O)C#Cc4ccc(F)cc4)c3)nc(NC3CCC(O)CC3)nc21` (centres unmarked) [Example 99, 3-(4-Fluoro-phenyl)-propynoic acid {3-[2-(4-hydroxy-cyclohexylamino)-9-isopropyl-9H-purin-6-ylamino]-phenyl}-amide] the figure was 145 to 147 °C; with `CC(C)n1cnc2c(Nc3cccc(NC(=O)C#Cc4ccccc4)c3)nc(NC3CCC(O)CC3)nc21` (centres unmarked) [Example 100, 3-(Phenyl)-propynoic acid {3-[2-(4-hydroxy-cyclohexylamino)-9-isopropyl-9H-purin-6-ylamino]-phenyl}-amide], 162 to 164 °C; with `CC(C)n1cnc2c(Nc3cccc(NC(=O)c4ccc(-c5ccccc5)cc4)c3)nc(NC3CCC(O)CC3)nc21` (centres unmarked) [Example 101, Biphenyl-4-carboxylic acid {3-[2-(4-hydroxy-cyclohexylamino)-9-isopropyl-9H-purin-6-ylamino]-phenyl]-amide], 226 to 228 °C.
Compound `CCn1cnc2c(Nc3cccc(NC(=O)C#Cc4cccc(C)c4)c3)nc(NC3CCC(O)CC3)nc21` (centres unmarked) [Example 102, 3-m-Tolyl-propynoic acid {3-[9-ethyl-2-(4-hydroxy-cyclohexylamino)-9H-purin-6-ylamino]-phenyl}-amide] showed a melting point of 164 to 171 °C.
Consider `CCn1cnc2c(Nc3cccc(NC(=O)C#Cc4cccc(C(F)(F)F)c4)c3)nc(NC3CCC(O)CC3)nc21` (centres unmarked) [Example 103, 3-(3-Trifluoromethyl-phenyl)-propynoic acid {3-[9-ethyl-2-(4-hydroxy-cyclohexylamino)-9H-purin 6-ylamino]-phenyl}-amide], for which the melting point was 156 to 168 °C.
`CCn1cnc2c(Nc3cccc(NC(=O)C#Cc4cccc(C)n4)c3)nc(NC3CCC(O)CC3)nc21` (centres unmarked) [Example 105, 3-(6-Methyl-pyridin-2-yl)-propynoic acid {3-[9-ethyl-2-(4-hydroxy-cyclohexylamino)-9H-purin-6-ylamino]-phenyl}-amide] gave a melting point of 149 to 156 °C.
The result for `CCn1cnc2c(Nc3cccc(NC(=O)C#Cc4nccc(C)n4)c3)nc(NC3CCC(O)CC3)nc21` (centres unmarked) [Example 106, 3-(4-Methyl-pyrimidin-2-yl)-propynoic acid {3-[9-ethyl-2-(4-hydroxy-cyclohexylamino)-9H-purin-6-ylamino]-phenyl}-amide] reads 167 to 177 °C; that for `CCn1cnc2c(Nc3cccc(NC(=O)C#Cc4c(Cl)cccc4Cl)c3)nc(N[C@H]3CC[C@H](O)CC3)nc21` [Example 107, N-{3-[9-Ethyl-2-(trans-4-hydroxy-cyclo-hexylamino)-9H-purin-6-yl-amino]-phenyl}-3-(2,6-dichlorophenyl)-propargylic acid amide], 234 to 236 °C; that for `CCn1cnc2c(Nc3cccc(NC(=O)C#Cc4cccs4)c3)nc(N[C@H]3CC[C@H](O)CC3)nc21` [Example 108, N-{3-[9-Ethyl-2-(trans-4-hydroxy-cyclo-hexylamino)-9H-purin-6-yl-amino]-phenyl}-3-(2-thiophenyl)-propargylic acid amide], 158 to 161 °C.
`CCn1cnc2c(Nc3cccc(NC(=O)C#Cc4cc(C)ccc4C)c3)nc(N[C@H]3CC[C@H](O)CC3)nc21` [Example 109, N-{3-[9-Ethyl-2-(trans-4-hydroxy-cyclo-hexylamino)-9H-purin-6-yl-amino]-phenyl)-3-(2,5-dimethyl-phenyl)-propargylic acid amide] had a melting point of 231 to 232 °C.
With `CCn1cnc2c(Nc3cccc(NC(=O)C#Cc4ccc(C)c(C)c4)c3)nc(N[C@H]3CC[C@H](O)CC3)nc21` [Example 110, N-(3-[9-Ethyl-2-(trans-4-hydroxy-cyclo-hexylamino)-9H-purin-6-yl-amino]-phenyl}-3-(3,4-dimethyl-phenyl)-propargylic acid amide] the figure was 146 to 148 °C.
Regarding `CCn1cnc2c(Nc3cccc(NC(=O)C#CCN4CCCCC4)c3)nc(NC3CCC(O)CC3)nc21` (centres unmarked) [Example 111, 4-Piperidin-1-yl-but-2-ynoic acid {3-[9-ethyl-2-(4-hydroxy-cyclohexyl-amino)-9H-purin-6-ylamino]-phenyl}-amide], the melting point came out at 150 °C.
The compound `CCn1cnc2c(Nc3cccc(NC(=O)C#CCN4CCN(C)CC4)c3)nc(NC3CCC(O)CC3)nc21` (centres unmarked) [Example 112, 4-(4-Methyl-piperazin-1-yl)-but-2-ynoic acid {3-[9-ethyl-2-(4-hydroxy-cyclohexylamino)-9H-purin-6-ylamino]-phenyl)-amide] had a melting point of 115 to 122 °C.
